Earlier results, collected in patent publication US20260242330A1, “USE OF AN AMANTADINE MONONITRATE COMPOUND IN MANUFACTURE OF A MEDICAMENT FOR THE PREVENTION AND TREATMENT OF HYPERTENSION” (GUANGZHOU MAGPIE PHARMACEUTICALS CO., LTD., priority 2022, published 2026).

System: 24-hour blood pressure in primary hypertension
Details: cited from earlier work

Compound | average 24-hour dynamic diastolic pressure decrease | average 24-hour dynamic systolic pressure decrease
CCOC(=O)[C@H](CCc1ccccc1)N[C@H]1CCc2ccccc2N(CC(=O)O)C1=O [benazepril] | 3.33 mmHg | 6.74 mmHg
COCCc1ccc(OCC(O)CNC(C)C)cc1 (centres unmarked) [metoprolol] | 4.6 mmHg | 6.66 mmHg
Cc1cccc(Nc2ccncc2S(=O)(=O)NC(=O)NC(C)C)c1 [tolasemide] | 2.42 mmHg | 5.92 mmHg
CCCCC(=O)N(Cc1ccc(-c2ccccc2-c2nnn[nH]2)cc1)[C@H](C(=O)O)C(C)C [valsartan] | 6.04 mmHg | 8.08 mmHg
